Experimental data reported in patent publication US20190184069A1, “ANTIMICROBIAL COMPOSITIONS COMPRISING MINOCYCLINE AND DEGRADATION PRODUCTS OF OXIDIZED CELLULOSE” (Omrix Biopharmaceuticals Ltd., priority 2017, published 2019).

Key:
S. aureus [1] = assay: Primary stage MIC measurement of antibiotic alone (OD 600 nm growth curves, 18 h); type: cell-based, Staphylococcus aureus
Source text: The following day, the turbidity of the actively-growing broth culture was adjusted with Calcium-adjusted Mueller Hinton broth II (MHBII) to be equivalent to that of a 0.5 McFarland standard (1×10^8 CFU/ml). The broth culture was maintained under ambient conditions prior to use.
The method used in this stage was based on the classic Minimum Inhibitory Concentration (MIC) measurements, as described by the Clinical and Laboratory Standards Institute (CLSI) document M07-A9: “Method for Dilution Antimicrobial Susceptibility Test for Bacteria that Grow Aerobically”. While classic MIC measurements require visual inspection of plates for bacterial growth after 18 hours, growth was monitored in the present study according to optical density (OD) at 600 nm, using an ELISA reader (MultiSkan™ FC ELISA reader, Thermo Fisher Scientific, Massachusetts, USA), thereby obtaining bacterial growth curves for tested antibiotic solutions.
Columns 1 and 3-12: 100 μl of MHBII alone was added to each well.
[…]: 200 μl of a solution of antibiotic in MHBII at the highest concentration to be tested was added to each well.
A series of 2-fold dilutions was performed, wherein 100 μl of solution of antibiotic was withdrawn from each well of column 2, transferred to the corresponding well of column 3, and mixed.
The dilution was then repeated by transfer from column 3 to column 4, and so on, until column 11, when the 100 μl of solution of antibiotic withdrawn from each well of column 11 was discarded.
The 5×10^6 CFU/ml stock suspension which had been prepared in advance was transferred into a reservoir and 10 μl of the stock suspension were added into each well of columns 2-11 using a multichannel pipette to obtain a final 5×10^5 CFU/ml suspension.
The plate was then incubated at 37° C. with shaking in the ELISA reader and the optical density at 600 nm was read every 20 minutes for a total of 18 hours.
The average OD reading obtained for each antibiotic concentration was calculated and plotted against time to obtain a growth curve.
The MIC was determined as the first antibiotic concentration at which […] by the end of the 18-hour period.

S. aureus [2] = details: cited from earlier work

| Compound | MIC as single antibiotics in the absence of ORC (first stage MIC results) (S. aureus [1]) | MIC values for S. aureus according to the literature (S. aureus [2]) |
| --- | --- | --- |
| CN(C)c1ccc(O)c2c1C[C@H]1C[C@H]3[C@H](N(C)C)C(O)=C(C(N)=O)C(=O)[C@@]3(O)C(O)=C1C2=O [Minocycline, minocycline] | 0.25 µg/mL |  |
| CO[C@H]1/C=C/O[C@@]2(C)Oc3c(C)c(O)c4c(O)c(c(/C=N/N5CCN(C)CC5)c(O)c4c3C2=O)NC(=O)/C(C)=C\C=C\[C@H](C)[C@H](O)[C@@H](C)[C@@H](O)[C@@H](C)[C@H](OC(C)=O)[C@@H]1C [Rifampin, rifampin] | 0.015 µg/mL | 0.004 to 0.015 µg/mL |
